Laboratory results taken from PMC12615753, “Glutathione as a taste modulator: molecular mechanisms of interaction with umami and sweet taste receptors” (Food Chemistry: Molecular Sciences, 2025).
“Also recorded” adds a separate entry of the source.

Biological target: T1, hTAS1R1 D192F/rTAS1R3 (UniProt Q7RTX1+Q923K1, D192F)
T1 construct: The cDNA coding region of rTAS1R3 was synthesized with optimized-codon usage for human expression; expressed in transfected cells; host or cells: HEK293T/17
T1 sequence (Q7RTX1 21-841 D192F): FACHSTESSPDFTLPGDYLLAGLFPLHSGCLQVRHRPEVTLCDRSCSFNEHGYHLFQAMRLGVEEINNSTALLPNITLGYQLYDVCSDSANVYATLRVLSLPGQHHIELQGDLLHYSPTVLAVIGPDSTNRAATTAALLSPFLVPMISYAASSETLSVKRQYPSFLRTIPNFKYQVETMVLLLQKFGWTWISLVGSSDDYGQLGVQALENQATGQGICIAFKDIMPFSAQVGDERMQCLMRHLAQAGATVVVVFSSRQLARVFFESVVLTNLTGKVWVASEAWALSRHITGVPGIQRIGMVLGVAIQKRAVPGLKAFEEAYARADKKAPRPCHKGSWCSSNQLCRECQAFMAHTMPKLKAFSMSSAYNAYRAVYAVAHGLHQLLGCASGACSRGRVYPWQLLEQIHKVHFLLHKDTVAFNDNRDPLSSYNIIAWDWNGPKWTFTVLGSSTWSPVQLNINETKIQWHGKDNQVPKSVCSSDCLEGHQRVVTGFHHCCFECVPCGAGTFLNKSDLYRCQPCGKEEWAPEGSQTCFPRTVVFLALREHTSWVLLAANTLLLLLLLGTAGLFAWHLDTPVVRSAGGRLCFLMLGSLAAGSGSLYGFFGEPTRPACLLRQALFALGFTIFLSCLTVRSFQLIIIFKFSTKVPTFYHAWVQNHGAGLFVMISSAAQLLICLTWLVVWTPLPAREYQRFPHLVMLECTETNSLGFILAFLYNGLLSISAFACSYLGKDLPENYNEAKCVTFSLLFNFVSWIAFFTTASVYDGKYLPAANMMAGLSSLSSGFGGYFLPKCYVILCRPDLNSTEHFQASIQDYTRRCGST
T1 sequence (Q923K1 21-858): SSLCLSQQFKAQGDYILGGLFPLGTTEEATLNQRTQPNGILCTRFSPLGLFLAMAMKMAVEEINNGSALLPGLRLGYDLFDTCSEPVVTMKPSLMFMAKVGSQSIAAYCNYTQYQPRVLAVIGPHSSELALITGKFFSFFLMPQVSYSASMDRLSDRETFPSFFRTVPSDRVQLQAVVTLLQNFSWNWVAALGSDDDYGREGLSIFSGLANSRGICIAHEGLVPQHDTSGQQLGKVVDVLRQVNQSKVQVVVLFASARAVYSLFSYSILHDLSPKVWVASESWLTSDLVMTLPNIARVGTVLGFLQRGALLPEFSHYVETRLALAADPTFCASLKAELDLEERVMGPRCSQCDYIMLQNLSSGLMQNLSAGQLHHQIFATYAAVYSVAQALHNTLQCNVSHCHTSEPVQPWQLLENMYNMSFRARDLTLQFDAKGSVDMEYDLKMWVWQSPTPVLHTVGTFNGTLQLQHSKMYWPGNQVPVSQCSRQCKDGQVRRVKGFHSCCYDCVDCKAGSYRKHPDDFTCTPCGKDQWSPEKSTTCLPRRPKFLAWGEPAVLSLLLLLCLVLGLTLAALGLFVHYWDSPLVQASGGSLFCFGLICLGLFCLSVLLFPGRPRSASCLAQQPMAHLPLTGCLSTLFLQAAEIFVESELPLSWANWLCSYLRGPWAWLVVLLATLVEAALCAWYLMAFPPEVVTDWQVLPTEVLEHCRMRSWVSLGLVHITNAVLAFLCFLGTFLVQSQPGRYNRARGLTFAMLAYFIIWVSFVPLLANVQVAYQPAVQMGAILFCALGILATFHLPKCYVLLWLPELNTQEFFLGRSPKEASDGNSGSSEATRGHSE
Assay: Calcium assay, hTAS1R1 mutant co-expressed with rTAS1R3
Assay type: cell-based, human, rat
Conditions: for response to the agonist alone, vs WT: D192F
Excerpt: Chimeric Gα proteins, such as Gα16Gust44, Gα16Gi3 or Gα15i2, are widely used in the functional expression of TAS1R receptors ([Backes et al., 2015]; [Suess et al., 2015]; [Toda et al., 2021], [Toda et al., 2013], [Toda et al., 2018]; [Zhang et al., 2008]). Chimeric Gα15i2 (([Toda et al., 2013]), Supplementary data) was generated by replacing the last five residues of the C-terminal tail of rat Gα15i2 (EINLL) (UniProt number G3V6N8; https://www.uniprot.org/uniprot/) with the counterpart sequence from human GNAI2 (DCGLF) (UniProt number P04899-1) and cloning into the pcDNA3.1/Hygro vector (Invitrogen, Thermo Fisher Scientific, Illkirch, France) between the HindIII and NotI restriction sites, resulting in the plasmid pcDNA3.1-Gα15i2. Chimeric Gα16Gust44 construct have already been reported ([Raliou et al., 2011]). Briefly, Gα16Gust44 was generated by replacing the C-terminal of Gα16 with the C-terminal 44 residues of gustducin. As previously described, hTAS1R1 was amplified from human fungiform papillae cDNA and cloned and inserted into pcDNA3 (Invitrogen), generating pcDNA3-TAS1R1-WT (wild-type) ([Raliou et al., 2011]). […] The cDNA coding region of rTAS1R3 was synthesized with optimized-codon usage for human expression (Genewiz) and was cloned and inserted into the mammalian pcDNA4/myc-HisA (Invitrogen) expression vector between the EcoRI and NotI restriction sites, resulting in the plasmid pcDNA4-rTAS1R3. […] The sequence integrity of all the plasmid constructs was verified via automated DNA sequencing (Genewiz).
The hTAS1R1 mutants were co-expressed with the rTAS1R3 subunit in HEK293 cells. […] As a control, the functionality of the mutated receptors was checked after stimulation with S807 (Fig. S8), which interacts with TAS1R1-TMD ([Zhang et al., 2008]).

Row | Compound | response to the agonist alone, vs WT | EC50 [mM]
1 | CCCC(CCC)NC(=O)c1ccc2c(c1)OCO2 [S807, N-(heptan-4-yl)benzo[d][1,3]dioxole-5-carboxamide, reference compound] | increased | 
2 | N[C@@H](CCC(=O)N[C@@H](CS)C(=O)NCC(=O)O)C(=O)O [GSH, γ-L-glutamyl-L-cysteinyl-glycine] | fully abolished; also recorded: completely abolished | > 30
3 | N[C@@H](CCC(=O)O)C(=O)O [L-Glu, L-glutamic acid, reference compound] | completely suppressed; also recorded: completely abolished | 
